Experimental data from patent US20150218212A1, “FLUORINATED EPOXYKETONE-BASED TETRAPEPTIDE COMPOUNDS AND USES THEREOF AS PROTEASOME INHIBITORS” (FLUORINOV PHARMA INC., priority 2012, published 2015).

How the values were obtained:
NCI-H322M = assay: NCI screening panel, NCI-H322M (Non-Small Cell Lung Cancer); assay type: cell-based, human
Protocol: (§1) Representative compounds of Formula I were screened using the National Cancer Institute (NCI) screening panel, which consists of a panel of human tumor cell lines, representing leukemia, melanoma, and cancers of the lung, colon, ovary, breast, prostate and renal system.
(§2) After 24 h, two plates of each cell line are fixed in situ with TCA, to represent a measurement of the cell population for each cell line at the time of drug addition (Tz). Experimental drugs are solubilised in dimethyl sulfoxide at 400-fold the desired final maximum test concentration and stored frozen prior to use. At the time of drug addition, an aliquot of frozen concentrate is thawed and diluted to twice the desired final maximum test concentration with complete medium containing 50 μg/mL gentamicin. Additional four, 10-fold or ½ log serial dilutions are made to provide a total of five drug concentrations plus control. Aliquots of 100 μl of these different drug dilutions are added to the appropriate microtiter wells already containing 100 μl of medium, resulting in the required final drug concentrations.
(§3) Following drug addition, the plates are incubated for an additional 48 h at 37° C., 5% CO2, 95% air, and 100% relative humidity. For adherent cells, the assay is terminated by the addition of cold TCA (trichloroacetic acid). Cells are fixed in situ by the gentle addition of 50 μl of cold 50% (w/v) TCA (final concentration, 10% TCA) and incubated for 60 minutes at 4° C. The supernatant is discarded, and the plates are washed five times with tap water and air dried. Sulforhodamine B (SRB) solution (100 μl) at 0.4% (w/v) in 1% acetic acid is added to each well, and plates are incubated for 10 minutes at room temperature. After staining, unbound dye is removed by washing five times with 1% acetic acid and the plates are air dried. Bound stain is subsequently solubilised with 10 mM trizma base, and the absorbance is read on an automated plate reader at a wavelength of 515 nm. For suspension cells, the methodology is the same except that the assay is terminated by fixing settled cells at the bottom of the wells by gently adding 50 μl of 80% TCA (final concentration, 16% TCA). Using the seven absorbance measurements [time zero, (Tz), control growth, (C), and test growth in the presence of drug at the five concentration levels (Ti)], the percentage growth is calculated at each of the drug concentrations levels. Percentage growth inhibition is calculated as: [(Ti−Tz)/(C−Tz)]×100 for concentrations for which Ti>/=Tz and [(Ti−Tz)/Tz]×100 for concentrations for which Ti<Tz.
(§4) Three dose response parameters are calculated for each experimental agent. Growth inhibition of 50% (GI50) is calculated from [(Ti−Tz)/(C−Tz)]×100=50, which is the drug concentration resulting in a 50% reduction in the net protein increase (as measured by SRB staining) in control cells during the drug incubation. The drug concentration resulting in total growth inhibition (TGI) is calculated from Ti=Tz. The LC50 (concentration of drug resulting in a 50% reduction in the measured protein at the end of the drug treatment as compared to that at the beginning) indicating a net loss of cells following treatment is calculated from [(Ti−Tz)/Tz]×100=−50. Values are calculated for each of these three parameters if the level of activity is reached. However, if the effect is not reached or is exceeded, the value for that parameter is expressed as greater or less than the maximum or minimum concentration tested.

HCT-15 = assay: NCI screening panel, HCT-15 (Colon Cancer); assay type: cell-based, human
Protocol: as §1, §2, §3, §4

M14 = assay: NCI screening panel, M14 (Melanoma); assay type: cell-based, human
Protocol: as §1, §2, §3, §4

OCI-AML-2 = assay: Cell viability (MTS) assay, OCI-AML-2; assay type: cell-based; settings: Homo sapiens, OCI-AML2; OCI-AML-2, MTS, 72 hours, mean ± standard deviation
Protocol: Human multiple myeloma cell lines 8226, H929, JJN3, KMH11, KMS11, KMS18, LP1, MM1S, OPM2 and U266 were grown in Iscove modified Dulbecco's medium (IMDM). Human leukemia cell lines K562, OCI-AML2 and U937 were cultured in RPMI-1640 medium. Primary peripheral blood mononuclear cells were isolated from multiple myeloma patients by Ficoll density gradient centrifugation and bone marrow aspirates were obtained from multiple myeloma patients at the Princess Margaret Cancer Centre of the University Health Network (UHN; Toronto, ON, Canada). Primary cells were cultured in IMDM. The collection and use of human tissue for this study was approved by the UHN institutional ethics review board. All cell culture media were obtained from the Ontario Cancer Institute Tissue Culture Media Facility (Toronto, ON, Canada) and were supplemented with 10% fetal calf serum, […] (Hyclone, Logan, Utah). All cells were grown in a humidified incubator at 37° C. with 5% CO2.
Cellular viability was primarily assessed by 3-(4,5-dimethylthiazol-2-yl)-5-(3-carboxymethoxyphenyl)-2-(4-sulfophenyl)-2H-tetrazolium (MTS) assay according to the manufacturer's instructions (Promega; Madison, Wis.). Cells were first seeded at a density of 10,000 cells per well in tissue culture-treated 96-well plates. Two hours after seeding, cells were treated with compounds for 72 hours at concentrations as indicated. As a control, cells were treated with DMSO alone in every assay plate. Following treatment and the MTS assay, cell viability was independently confirmed by reading the optical density (O.D.) at 490 nm and by exclusion of trypan blue stain (Invitrogen; Burlington, ON, Canada). The viability of primary mononuclear cells was determined by staining with Annexin V.
Table 8 summarizes the data of representative compounds of Formula I for cell viability and CT-L proteasome activity with OCI-AML-2 and KMS-11 cell lines.

NCI-H23 = assay: NCI screening panel, NCI-H23 (Non-Small Cell Lung Cancer); assay type: cell-based, human
Protocol: as §1, §2, §3, §4

TK-10 = assay: NCI screening panel, TK-10 (Renal Cancer); assay type: cell-based, human
Protocol: as §1, §2, §3, §4

UACC-257 = assay: NCI screening panel, UACC-257 (Melanoma); assay type: cell-based, human
Protocol: as §1, §2, §3, §4

SF-268 = assay: NCI screening panel, SF-268 (CNS Cancer); assay type: cell-based, human
Protocol: as §1, §2, §3, §4

OVCAR-4 = assay: NCI screening panel, OVCAR-4 (Ovarian Cancer); assay type: cell-based, human
Protocol: as §1, §2, §3, §4

NCI-H522 = assay: NCI screening panel, NCI-H522 (Non-Small Cell Lung Cancer); assay type: cell-based, human
Protocol: as §1, §2, §3, §4

SMILES | Log10GI50 (NCI-H322M) | Log10LC50 (NCI-H322M) | Log10TGI50 (NCI-H322M) | Log10GI50 (HCT-15) | Log10LC50 (HCT-15) | Log10TGI50 (HCT-15) | Log10GI50 (M14) | Log10LC50 (M14) | Log10TGI50 (M14) | IC50 (OCI-AML-2) [nM] | Log10GI50 (NCI-H23) | Log10LC50 (NCI-H23) | Log10TGI50 (NCI-H23) | Log10GI50 (TK-10) | Log10LC50 (TK-10) | Log10TGI50 (TK-10) | Log10GI50 (UACC-257) | Log10LC50 (UACC-257) | Log10TGI50 (UACC-257) | Log10GI50 (SF-268) | also measured
CC(C)C[C@H](NC(=O)[C@H](COC(F)F)NC(=O)[C@H](COC(F)F)NC(=O)[C@H](CCc1ccccc1)NC(=O)CN1CCOCC1)C(=O)[C@@]1(C)CO1 [Example 7, (2S)-N-[(1S)-1-(difluoromethoxymethyl)-2-[[(1S)-1-(difluoromethoxymethyl)-2-[[(1S)-3-methyl-1-[(2R)-2-methyloxirane-2-carbo-nyl]butyl]amino]-2-oxo-ethyl]amino]-2-oxo-ethyl]-2-[(2-morpholinoacetyl)amino]-4-phenyl-butanamide] | −7.04 | −4.81 | −6.35 | −5.89 | >−4.00 | >−4.00 | −7.11 | >−4.00 | −5.70 | 61.1 ± 10.1 | −7.57 | >−4.00 | −5.58 | −6.56 | >−4.00 | −5.24 | −6.80 | >−4.00 | −6.03 | −7.73 | Log10LC50 (SF-268): >−4.00; Log10TGI50 (SF-268): −7.21; Log10GI50 (OVCAR-4): −7.69; Log10LC50 (OVCAR-4): >−4.00; Log10TGI50 (OVCAR-4): >−4.00; Log10GI50 (NCI-H522): −7.88; Log10LC50 (NCI-H522): −4.62; Log10TGI50 (NCI-H522): −7.20
CC(C)C[C@H](NC(=O)[C@H](Cc1ccccc1)NC(=O)[C@H](COC(F)F)NC(=O)[C@H](COC(F)F)NC(=O)CN1CCOCC1)C(=O)[C@@]1(C)CO1 [Example 11, (2S)-2-[[(2S)-3-(difluoromethoxy)-2-[[(2S)-3-(difluoromethoxy)-2-[(2-morpholinoacetyl)-amino]propanoyl]amino]propanoyl]amino]-N-[(1S)-3-methyl-1-[(2R)-2-methyloxirane-2-carbonyl]butyl]-3-phenyl-propanamide] | −6.85 | −4.06 | −6.03 | −6.00 | >−4.00 | −4.42 | −7.21 | >−4.00 | −5.91 | 15.7 ± 3.56 | −7.50 | >−4.00 | −5.55 | −6.80 | >−4.00 | −5.30 | −6.79 | >−4.00 | −6.14 | −7.66 | Log10LC50 (SF-268): −4.07; Log10TGI50 (SF-268): −7.22; Log10GI50 (OVCAR-4): −7.68; Log10LC50 (OVCAR-4): >−4.00; Log10TGI50 (OVCAR-4): −5.69; Log10GI50 (NCI-H522): −7.72; Log10LC50 (NCI-H522): >−4.00; Log10TGI50 (NCI-H522): −7.15
CC(C)C[C@H](NC(=O)[C@H](COC(F)F)NC(=O)[C@H](COC(F)F)NC(=O)[C@H](COC(F)F)NC(=O)CN1CCOCC1)C(=O)[C@@]1(C)CO1 [Example 17, (2S)-3-(difluoromethoxy)-N-[(1S)-1-(difluoromethoxymethyl)-2-[[(1S)-1-(difluoro-methoxymethyl)-2-[[(1S)-3-methyl-1-[(2R)-2-methyloxirane-2-carbonyl]butyl]amino]-2-oxo-ethyl]amino]-2-oxo-ethyl]-2-[(2-mor-pholinoacetyl)amino]-propanamide] | −6.58 | −4.92 | −5.73 | −5.28 | >−4.00 | >−4.00 | −6.59 | >−4.00 | −5.41 | 136 ± 36.8 | −7.15 | >−4.00 | −5.98 | −6.30 | >−4.00 | −4.85 | −6.45 | >−4.00 | −5.56 | −7.15 | Log10LC50 (SF-268): −4.87; Log10TGI50 (SF-268): −6.47; Log10GI50 (OVCAR-4): −7.23; Log10LC50 (OVCAR-4): >−4.00; Log10TGI50 (OVCAR-4): −4.55; Log10GI50 (NCI-H522): −7.40; Log10LC50 (NCI-H522): −5.25; Log10TGI50 (NCI-H522): −6.64
